Results on two compounds are retold here after US20210023233A1, “ANTIBODY-PEPTIDE COMPLEXES AND USES THEREOF” (priority 2018, published 2021).

The assay deals with CD20+ Daudi human lymphoma cells. Put plainly: Toxicity of cisplatin-loaded peptide: Daudi cell proliferation/survival after overnight treatment. Type of assay: cell-based. The note with it: treated overnight, 100 μg/ml. The method, then: FIG. 4 is a graph plotting the toxicity of cisplatin-loaded peptide. CD20+ Daudi human lymphoma cells were treated overnight with 100 μg/ml ABRAXANE® (ABX), 100 μg/ml cisplatin (CIS), 1 mg/ml rituximab (RIT), 1 mg/ml peptide only (PEP), 100 μg/ml peptide-loaded cisplatin (PEP+CIS), peptide with rituximab (PEP+RIT), or 100 μg/ml peptide-loaded cisplatin with rituximab (PEP+CIS+RIT).
CD20+ Daudi human lymphoma cells were treated overnight with 100 μg/ml ABRAXANE® (ABX), 100 μg/ml cisplatin (CIS), 1 mg/ml rituximab (RIT), 1 mg/ml peptide (SEQ ID NO:2) only (PEP), 100 μg/ml peptide-loaded cisplatin (PEP+CIS), peptide with rituximab (PEP+RIT), or 100 μg/ml peptide-loaded cisplatin with rituximab (PEP+CIS+RIT), and cell survival was assessed (FIG. 4).

As for `N.N.[Cl][Pt][Cl]` [cisplatin], the “Toxicity to Daudi cells compared with cisplatin-containing peptide (in words)” value was “equivalent”. As for PEP+CIS (VVLCQLCVLHEKTPVSDR), the “Daudi proliferation, % of the total (control) proliferation” value turned out to be 80%.
